The values below come from patent publication US20240285571A1, “METHODS OF TREATING BONE INFECTIONS” (MICROBION CORPORATION, priority 2020, published 2024).

Each structure is given as a SMILES string. Values after ≈ are worked out from the molar mass of the structure shown. Read-outs that look alike come from different tables or passages of the source. Some results are limits rather than exact numbers.

For experiment [1], the system named is relevant ATCC QC organisms. The conditions noted are these: CLSI established QC range, cited from earlier work.
The next experiment deals with S. aureus ATCC 29213. As to conditions: per CLSI M100-S24 or provided by Microbion; cited from earlier work.
Experiment [2] has as its system vancomycin-intermediate Staphylococcus aureus. Put plainly: Broth microdilution MIC (Example 6). In kind it is cell-based. In short, it runs like this:
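CLSI broth microdilution in cation-adjusted Mueller Hinton broth, test agents 0.06-64 μg/mL from DMSO stocks, inoculum approx. 5×10^5 CFU/mL. Incubation 35° C for 16–20 hr; MIC taken as lowest concentration inhibiting visible growth.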
(In general: Dilution methods test growth across graded concentrations, often in twofold steps.)

A further experiment concerns E. faecium. Put plainly: Broth microdilution MIC (Example 5). The format is cell-based. As to conditions: VRE vanA. In short, it runs like this: (§1)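 Susceptibility testing used automated two-fold serial dilution in microdilution plates per CLSI. Each well received a standardized inoculum from a 0.5 McFarland suspension, with an unmedicated column as growth control.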
Another experiment relates to S. aureus. Put plainly: Broth microdilution MIC (Example 5). In kind it is cell-based, Staphylococcus aureus. As to conditions: Staphylococcus aureus. In short, it runs like this:
as §1

A further experiment has as its system B. fragilis. Put plainly: Agar dilution MIC, anaerobes (Example 5). The format is cell-based. The conditions noted are these: Bacteroides fragilis, ATCC25285. For orientation: Agar dilution tests growth on a series of plates holding different concentrations.
The next experiment relates to N. gonorrhoeae. Put plainly: microbe, parasite or virus in culture. As to conditions: Neisseria gonorrhoeae.
Setting [3] is: ATCC 29213 / MSSA, S. aureus MMX 101 (ATCC 29213), QC, MSSA.
The mark [4] stands for this setting: ATCC49226, N. gonorrhoeae MMX 683 (ATCC 49226), QC.
Setting [5] is: N. gonorrhoeae MMX 6757, CTX NS.
The mark [6] stands for this setting: read-out: MIC values across isolates, N. gonorrhoeae isolates (Table 7).

As to `NCC[C@H](O)C(=O)N[C@@H]1C[C@H](N)[C@@H](O[C@H]2O[C@H](CN)[C@@H](O)[C@H](O)[C@H]2O)[C@H](O)[C@H]1O[C@H]1O[C@H](CO)[C@@H](O)[C@H](N)[C@H]1O` [Amikacin], the “MIC QC range (in parentheses)” value in experiment [1] (P. aeruginosa ATCC 27853) was “(1-4) μg/mL”. Further, in the experiment on S. aureus ATCC 29213, the “MIC, acceptable range” value was 1 to 4 µg/mL and the “MIC, expected results” value was 2 µg/mL (≈ 3.42 µM).
For the compound `CCC[C@@H]1C[C@@H](C(=O)N[C@@H]([C@H]2O[C@H](SC)[C@H](O)[C@@H](O)[C@H]2O)[C@H](C)Cl)N(C)C1` [CLI], the MIC was above 8 µg/mL in experiment [2] (S. aureus isolate NRS 1 (hVISA)); above 8 µg/mL in experiment [2] (S. aureus isolate NRS 2); above 8 µg/mL in experiment [2] (S. aureus isolate NRS 3); above 8 µg/mL in experiment [2] (S. aureus isolate NRS 4); 0.06 µg/mL in experiment [2] (S. aureus isolate NRS 13); above 8 µg/mL in experiment [2] (S. aureus isolate NRS 18). Besides, the MIC in experiment [2] (S. aureus isolate NRS 22), in experiment [2] (S. aureus isolate NRS 24 (hVISA)) and in experiment [2] (S. aureus isolate NRS 27) was above 8 µg/mL throughout. Besides, the “MIC QC range (in parentheses)” value in experiment [1] (S. aureus ATCC 29213) is recorded as “(0.06-0.25) μg/mL”.
Compound `CC(C)(O/N=C(\C(=O)N[C@@H]1C(=O)N2C(C(=O)[O-])=C(C[n+]3ccccc3)CS[C@H]12)c1csc(N)n1)C(=O)O` [Ceftazidime] came in with an MIC against E. faecium (E. faecium MMX 485) above 32 µg/mL. Also, the “MIC QC range (in parentheses)” value in experiment [1] (E. coli ATCC 25922) is listed as “(0.06-0.5) μg/mL”; in experiment [1] (P. aeruginosa ATCC 27853), “(1-4) μg/mL”.
As to `C[C@H]1COc2c(N3CCN(C)CC3)c(F)cc3c(=O)c(C(=O)O)cn1c23` [Levofloxacin], the MIC is above 64 µg/mL with E. faecium (E. faecium MMX 485); 4 µg/mL in experiment [2] (Staphylococcus aureus, NRS1, S. aureus isolate NRS 1 (hVISA), read-out: MIC); 4 µg/mL in experiment [2] (Staphylococcus aureus, NRS2, S. aureus isolate NRS 2, read-out: MIC); above 8 µg/mL in experiment [2] (Staphylococcus aureus, NRS3, S. aureus isolate NRS 3, read-out: MIC); 4 µg/mL in experiment [2] (Staphylococcus aureus, NRS4, S. aureus isolate NRS 4, read-out: MIC); 0.12 µg/mL in experiment [2] (Staphylococcus aureus, NRS13, S. aureus isolate NRS 13, read-out: MIC). The MIC was 4 µg/mL in experiment [2] (Staphylococcus aureus, NRS18, S. aureus isolate NRS 18, read-out: MIC); 8 µg/mL in experiment [2] (Staphylococcus aureus, NRS22, S. aureus isolate NRS 22, read-out: MIC); above 8 µg/mL in experiment [2] (Staphylococcus aureus, NRS24, S. aureus isolate NRS 24 (hVISA), read-out: MIC); 8 µg/mL in experiment [2] (Staphylococcus aureus, NRS27, S. aureus isolate NRS 27, read-out: MIC).
As to `OCC(S)CS.[Bi]` (stereo not shown) [MB-2B, bismuth-2,3-dimercaptopropanol], the MIC in the experiment with S. aureus (setting [3]) was 0.5 µg/mL; against S. aureus (MRSA, S. aureus MMX 5373), at most 0.06 µg/mL; against S. aureus (MRSA, S. aureus MMX 6311), at most 0.06 µg/mL; in the experiment with S. aureus (MRSA, S. aureus MMX 9203), 0.25 µg/mL; in the experiment with S. aureus (MRSA, S. aureus MMX 9204), at most 0.06 µg/mL; against S. aureus (MRSA, S. aureus MMX 9205) it was at most 0.06 µg/mL. Moreover, the MIC in the experiment on S. aureus (MRSA, read-out: MIC values against MRSA, MRSA isolates (Table 5)) was below 0.06 µg/mL; in the experiment with E. faecium (Enterococcus faecium, VRE, E. faecium MMX 485), 2 µg/mL; against E. faecium (Enterococcus faecium, VRE, E. faecium MMX 752), 4 µg/mL; against B. fragilis it was 8 µg/mL; in experiment [2] (Staphylococcus aureus, NRS1), 1 µg/mL; in experiment [2] (Staphylococcus aureus, NRS2) it was 0.5 µg/mL. Further, the MIC in experiment [2] (Staphylococcus aureus, NRS3) came to 2 µg/mL; in experiment [2] (Staphylococcus aureus, NRS4), 1 µg/mL; in experiment [2] (Staphylococcus aureus, NRS13) it was 1 µg/mL; in experiment [2] (Staphylococcus aureus, NRS18), 1 µg/mL; in experiment [2] (Staphylococcus aureus, NRS22) it was 2 µg/mL; in experiment [2] (Staphylococcus aureus, NRS24), 1 µg/mL. Also, the MIC came to 1 µg/mL in experiment [2] (Staphylococcus aureus, NRS27); 0.12 µg/mL against N. gonorrhoeae (setting [4]); 0.5 µg/mL in the experiment with N. gonorrhoeae (setting [5]); 0.12 µg/mL with N. gonorrhoeae (N. gonorrhoeae MMX 6791, CIPR); 0.12 µg/mL in the experiment on N. gonorrhoeae (N. gonorrhoeae MMX 6792, CIPR); 0.5 µg/mL in the experiment with N. gonorrhoeae (N. gonorrhoeae MMX 6793, CIPR). In addition, in the experiment on N. gonorrhoeae (setting [6]), the MIC fell in the range of 0.12 to 0.5 µg/mL.
For the compound `CC(S)C(C)S.[Bi]` (stereo not shown) [MB-6, bismuth-2,3-butanedithiol], the MIC in the experiment on S. aureus (setting [3]) is at most 0.06 µg/mL; against S. aureus (MRSA, S. aureus MMX 5373) it was at most 0.06 µg/mL; against S. aureus (MRSA, S. aureus MMX 6311), at most 0.06 µg/mL; with S. aureus (MRSA, S. aureus MMX 9204) it was at most 0.06 µg/mL; against S. aureus (MRSA, S. aureus MMX 9205) it was at most 0.06 µg/mL; against B. fragilis, 1 µg/mL. Further, the MIC was 0.12 µg/mL in experiment [2] (Staphylococcus aureus, NRS1); at most 0.06 µg/mL in experiment [2] (Staphylococcus aureus, NRS2); 1 µg/mL in experiment [2] (Staphylococcus aureus, NRS24); 0.06 µg/mL in the experiment with N. gonorrhoeae (setting [4]); 0.06 µg/mL in the experiment with N. gonorrhoeae (setting [5]); 0.12 µg/mL with N. gonorrhoeae (N. gonorrhoeae MMX 6791, CIPR). Also, the MIC in the experiment with N. gonorrhoeae (N. gonorrhoeae MMX 6792, CIPR) is 0.12 µg/mL; against N. gonorrhoeae (N. gonorrhoeae MMX 6793, CIPR) it was 0.25 µg/mL; in the experiment on N. gonorrhoeae (setting [6]), 0.06 to 0.25 µg/mL. Moreover, in the experiment on S. aureus ATCC 29213, the “MIC, acceptable range” value is 0.12 to 0.5 µg/mL. Further, in the experiment on S. aureus ATCC 29213, the “MIC, expected results” value is 0.25 µg/mL.
On to `C[C@@H](O)[C@H]1C(=O)N2C(C(=O)O)=C(S[C@@H]3CN[C@H](C(=O)N(C)C)C3)[C@H](C)[C@H]12` [Meropenem], for which the MIC against E. faecium (E. faecium MMX 485) was above 64 µg/mL. The “MIC QC range (in parentheses)” value in experiment [1] (E. coli ATCC 25922) is on record as “(0.008-0.06) μg/mL”; in experiment [1] (E. coli ATCC 35218), “(0.008-0.06) μg/mL”; in experiment [1] (K. pneumoniae ATCC BAA-1705), “(8-64) μg/mL”; in experiment [1] (P. aeruginosa ATCC 27853), “(0.12-1) μg/mL”.
